Experimental data published in publication PMC11860023, “Synthesis and Characterization of Memantine-Loaded Niosomes for Enhanced Alzheimer’s Disease Targeting” (Pharmaceutics, 2025).
In brackets after ≈: the same amount, converted by molar mass. Marks after values point to notes of the source that are not given here.

Key:
[1] = system: differentiated SH-SY5Y cells exposed to amyloid beta 1−42 peptide; experiment: Neuroprotection in the in vitro AD model (differentiated SH-SY5Y exposed to amyloid beta 1-42), MTT; assay type: cell-based, human; details: for concentration range of optimal neuroprotective activity: AD model, differentiated neuronal cultures; for increase of cell viability versus amyloid beta only control: derivative loaded into niosomal drug delivery system, 47 µg/mL, 24 h; for cell viability versus amyloid beta only control (neuroprotective effect): free compound 47 µg/mL, 10 µM amyloid beta 1−42
Procedure: (§1) The SH-SY5Y neuroblastoma cell line, frequently used as an in vitro model of Alzheimer’s disease, has been cultured to transform into mature neuron-like structures through differentiation with retinoic acid (RA). For this purpose, the SH-SY5Y neuroblastoma cell line was grown in a DMEM:F12 nutrient medium environment with 10% fetal bovine serum (FBS) growth factor, 1% Penicillin/streptomycin, and 5% CO2 at 37 °C. The nutrient medium was refreshed every three days, with half the volume changed. Cells were subcultured after treatment with trypsin/EDTA for 5 min. To differentiate SH-SY5Y cells, the medium containing 10 µM RA (DMEM:F12 + 15% FBS) was added. Five days after the addition of RA, the cells were washed three times with PBS and incubated in DMEM:F12. The differentiation of the cells was determined by cell cycle analysis using a flow cytometry system. […] Converted cell cultures were used as a negative control, and cell cultures with only amyloid beta were used as a positive control without adding the synthesized molecules. The viability rates in the in vitro AD model that we intended to create were analyzed with MTT cytotoxicity tests.
Differentiated SH-SY5Y cells were seeded into 96-well plates, with each well containing 100 μL of culture medium with 2 × 10^4 cells. […] At the end of the incubation period, 10 μL of MTT mixture was added to each well for MTT analysis. The mixture was gently stirred using a circular mixer for 1 min and then incubated in a CO2 incubator at 37 °C for 3–4 h. […] The culture medium was carefully aspirated from each compartment without disturbing the cell layer. Alternatively, before aspiration, the plate was centrifuged at 400× g for 10 min to settle non-adherent cells. Then, 100 μL of crystal solvent solution (DMSO) was added to each compartment, and the absorbance of each sample was measured at 570 nm using a microplate reader.
This peptide is instrumental in AD pathology and serves as a pertinent stressor for assessing the neuroprotective efficacy of potential therapeutic agents.
In the conducted in vitro studies, the neuroprotective effects of memantine derivatives encapsulated within a nanosomal drug delivery system were evaluated using the SH-SY5Y neuroblastoma cell line as a model for AD. The differentiated neuronal cultures were treated with memantine derivatives which were loaded into the niosomal drug delivery systems at a uniform concentration of 47 µg/mL across three independent experimental repeats.

[2] = system: differentiated SH-SY5Y cells; experiment: MTT cell viability test in differentiated SH-SY5Y cell cultures; assay type: cell-based, human; details: for cell viability at the highest concentration: 500 µg/mL; for IC50: Homo sapiens, read-out: IC50 (concentration required to achieve 50% cell viability), MTT
Procedure: Differentiated SH-SY5Y cells were seeded into 96-well plates, with each well containing 100 μL of culture medium with 2 × 10^4 cells. […] At the end of the incubation period, 10 μL of MTT mixture was added to each well for MTT analysis. The mixture was gently stirred using a circular mixer for 1 min and then incubated in a CO2 incubator at 37 °C for 3–4 h. […] The culture medium was carefully aspirated from each compartment without disturbing the cell layer. Alternatively, before aspiration, the plate was centrifuged at 400× g for 10 min to settle non-adherent cells. Then, 100 μL of crystal solvent solution (DMSO) was added to each compartment, and the absorbance of each sample was measured at 570 nm using a microplate reader [18].

[3] = system: human fibroblast (HDFa) cell cultures; experiment: Nuclear abnormality / micronucleus analysis by Hoechst 33258 staining in HDFa cells; assay type: cell-based; details: 24 h, 125 μg/mL
Procedure: (§2) The human fibroblast cell line (ATCC® PCS-201-012™ Manassas, VA, USA) was propagated in DMEM culture medium enriched with a 1% mixture of penicillin/streptomycin antibiotics and 10% fetal bovine serum (FBS) and maintained in an atmosphere containing 5% CO2 at a temperature of 37 °C until they reached full confluence. To identify nuclei alterations, Hoechst 33258 fluorescent dye was employed. […] Following the treatment period, the cells were stabilized using 4% paraformaldehyde at a cool temperature of 4 °C for 30 min. The cells were then rinsed with PBS and exposed to 1 µM of the Hoechst 33258 dye for a brief duration of 5 min [15]. After the staining process, the cells were examined and imaged using a Leica® DM IL LED (Leica Microsystems, Wetzlar, DE) fluorescent microscope.
Figure 4 Analysis of the genotoxic properties of synthesized memantine derivatives (MP1–4) in cultured human fibroblast cells (HDFa) using Hoechst 33258 fluorescent staining of cell nuclei. (A) MP1, (B) MP2, (C), MP3 and (D) MP4.

[4] = Drug loading (encapsulation efficiency) of niosomes, UV at 236 nm after centrifugal filtration; assay type: physicochemical; details: Span60:cholesterol 2:1, drug 1 mg/mL
Procedure: The efficiency of MP1–4 encapsulation within the niosomes was evaluated by quantifying the unencapsulated MP1–4. This was achieved by centrifuging the niosomal mixtures at 4 °C for 20 min at a speed of 4000 rpm, utilizing an Amicon Ultra centrifuge filter unit (Millipore Merck, Darmstadt, DE). The optical density of the supernatant containing free MP1–4 was measured at a wavelength of 236 nm with a UV–Vis spectrophotometer (Eppendorf® 580R centrifuge, Hamburg, DE). By determining the concentration of the free drug in the supernatant, we were able to calculate the unknown amount of encapsulated drug. The encapsulation efficiency percentage was then computed based on the initial molecule concentration (Ci) used in the niosome preparation versus the concentration found post-centrifugation (Cf), as in the following equation:% Loading capacity = [(Ci − Cf)/Ci] × 100 (1)
The loading capacities of the synthesized memantine derivative compounds in the niosomal drug delivery system were examined in detail. In this study, loading efficiency was determined by centrifuging niosomal formulations using an Amicon Ultra centrifuge filter device (Millipore Merck, Burlington, MA, USA) at 4000 rpm for 20 min at 4 °C. The amount of free drug remaining was recorded using a UV–Vis spectrophotometer (Eppendorf® 580R centrifuge, Hamburg, DE). […] However, the loading capacity of the memantine derivative MP2 was determined to be 53%, which is below the desired capacity.

[5] = In vitro drug release from niosomes (dialysis membrane, PBS-SDS, 37 °C); assay type: physicochemical; details: for Higuchi coefficient (kH): release from niosomal carriers, Higuchi model
Procedure: To investigate the drug’s release profile from the niosomes, an in vitro release study was performed. For the release study, we used loading rates calculated by a drug loading study. A 2 mL aliquot of the optimized niosomal formulation was enclosed within a dialysis membrane (with a 12 kDa molecular weight cut-off) and incubated for 72 h at 37 °C. This incubation occurred in a stirring environment within 50 mL of a release solution composed of phosphate-buffered saline with 0.5% sodium dodecyl sulfate (PBS-SDS) by w/v. Samples of 1 mL were systematically withdrawn at specific intervals (1, 2, 4, 8, and 24 h) from the release medium, with each withdrawal immediately compensated for by an equivalent volume of fresh release medium. The optical density of these samples was measured at 236 nm using a spectrophotometer. From these measurements, the quantity of memantine released was calculated, and the release percentages were reported as a proportion of the total drug release.
Drug release capacities with MP1–4 were determined using the niosomal release systems generated. […] This feature offers an important advantage in terms of controlled drug release. The drug release study was carried out by measuring the absorbance using a spectrophotometer on samples taken at specific time intervals (1, 2, 4, 8, and 24 h). These measurements were carried out at the max peak of the drugs, and the data obtained were used to determine the amount of memantine derivative drug released. The results present the percentages of the released content as a percentage of total release. […] It was also concluded that a slow and proportional release occurred over the indicated time period, indicating the potential for controlled drug release (Figure 6).

[6] = system: bEnd.3 cells / SH-SY5Y disease model; experiment: In vitro BBB permeability test, transwell bEnd.3 monolayer over SH-SY5Y disease model, viability readout; assay type: cell-based; details: carrier 0.1 mg/mL loaded with 47 µg/mL vs non-loaded 47 µg/mL, 24 h
Procedure: In vitro BBB models were created using a transwell culture system for BBB permeability analysis. Initially, bEnd.3 cells were seeded inside the membrane of the plate at a starting density of 1 × 10^5 cells/well and cultured for about a week in DMEM growth medium supplemented with 10% fetal bovine serum. Subsequently, the upper compartments containing bEnd.3 monolayers were transferred to plates containing SH-SY5Y cells coated at the bottom of the lower compartments. Then, carrier particles were added to the apical upper chambers of the BBB models at a final concentration of 0.1 mg/mL. Approximately 24 h after incubation, viability analyses were conducted on the SH-SY5Y disease model formed in the lower layer to determine BBB permeability capacities. A schematic diagram of the method is shown below (Figure 2). Prior to starting the experimental procedures, the bEnd.3 cells were cultured until 90–100% confluency was achieved, as this confluency level is necessary for tight junction formation and optimal barrier properties. The integrity of the cell monolayer was then evaluated under an inverted microscope to confirm confluence and uniform cell distribution, ensuring the reliability of the in vitro BBB model.
In vitro BBB permeability analyses were conducted by establishing in vitro transwell BBB models, within which the effects of drug-loaded MP1–4 were studied. […]

[7] = system: human fibroblast cells (HDFa); experiment: MTT cell viability assay of MP1–4 in cultured human fibroblast cells (HDFa); assay type: cell-based; details: at each concentration applied
Procedure: as §2
The human fibroblast cell line HDFa was cultured and tested for toxicity with 4 different memantine derivatives in 48-well plates. The experiments, conducted in triplicate, included both treated and untreated (negative control) cell cultures. Post-treatment, the cells were incubated with an MTT mixture to assess cell viability, followed by the addition of a crystal solvent solution (DMSO) to dissolve formazan crystals formed in viable cells. The absorbance of each sample was measured to evaluate the cytotoxic effects of the memantine derivatives on the fibroblast cells. […]

SH-SY5Y cells = experiment: Cell cycle distribution of SH-SY5Y cells by flow cytometry after retinoic acid differentiation; assay type: cell-based, human; details: all-trans retinoic acid 10 µM, 11 days
Procedure: as §1
To confirm successful differentiation, flow cytometry was utilized to analyze the cell cycle distribution within the cultures.

IC50 [2]	Drug Loading (%) / encapsulation efficiency [4]	drug release behaviour from niosomal release systems ([5]; sampling at 1, 2, 4, 8 and 24 h)	SMILES	concentration range of optimal neuroprotective activity [1]	increase of cell viability versus amyloid beta only control [1]	cell viability versus amyloid beta only control (neuroprotective effect) [1]	cell viability at the highest concentration [2]	Mean NA/1000 Cells ± SD [3]	Nuclear Abnormalities (NA) Total Lobbed [3]	Nuclear Abnormalities (NA) Total MN [3]	Nuclear Abnormalities (NA) Total Notched [3]	Higuchi coefficient (kH) [5]	effect on cell viability / neuroprotection of niosome-loaded versus non-loaded derivative [6]	decrease of cell viability [7]	Cell Population (%) G1 Phase (SH-SY5Y cells)	Cell Population (%) G2 Phase (SH-SY5Y cells)	Cell Population (%) S Phase (SH-SY5Y cells)
5620 µg/mL (≈ 18400 µM)	≥ 85%	most optimal drug release	CCCC(CCC)C(=O)NC12CC3CC(C)(CC(C)(C3)C1)C2 [MP1]	15.6 to 62.5 µg/mL	approximately 40%	significantly enhanced cell viability	relatively higher cell viability	0.013 ± 0.001 ^a	3	5	5	10.36	higher effect on cell viability and a significant increase in neuroprotective properties	–	–	–	–
457 µg/mL (≈ 1400 µM)	53%	–	CC12CC3CC(C)(C1)CC(NC(=O)CCCc1ccccc1)(C3)C2 [MP2]	31.25 to 125 µg/mL	approximately 40%	significantly enhanced cell viability	relatively higher cell viability	0.012 ± 0.002 ^a	5	4	3	7.55	–	–	–	–	–
659 µg/mL (≈ 1930 µM)	≥ 85%	–	CC12CC3CC(C)(C1)CC(NC(=O)/C=C/c1ccc(O)c(O)c1)(C3)C2 [MP4]	–	approximately 40%	significantly enhanced cell viability	significantly reduced	0.013 ± 0.003 ^a	4	5	4	10.82	higher effect on cell viability and a significant increase in neuroprotective properties	~40%	–	–	–
–	–	–	CC1=C(/C=C/C(C)=C/C=C/C(C)=C/C(=O)O)C(C)(C)CCC1 [RA Treated, all-trans retinoic acid]	–	–	–	–	–	–	–	–	–	–	–	72.45 ± 3.78 %	5.34 ± 0.17 %	18.65 ± 3.23 %
